Changes are numbered by the printed parent chain. Entries after “also recorded” stand apart in the source; their conditions may differ. Like-named read-outs stand apart in the source and are kept apart here.
Assays:
[1] = low concentration of GSH, within 20 minutes; cited from earlier work
[2] = test system: HeLa cervical cancer cell line; assay: Cellular reduction assay in HeLa cells (fluorescence timecourse); type: cell-based, human; details: time- and dose-dependence
Description: (§1) Assay Conditions: Cells were cultured under standard conditions (Gao, L. et al. Cell Chemical Biology 2021, 28, 1-14. https://doi.org/10.1016/j.chembiol.2020.11.007), left to adhere for 24 h, then compounds were added to 100 μM with 1% vol DMSO. Fluorescence timecourse measurements were acquired as in the chemoreductant assay, with all conditions in triplicates.
(§2) Data Representation: F.I.(t) is the fluorescence intensity signal increase as compared to time zero signal (fluorescence intensity immediately following compound addition, before probe activation could occur), in arbitrary units although with the same detection settings for all probes releasing the same cargo. This corresponds to reduction-triggered cargo release.

[3] = test system: A549 lung cancer cell line; assay: Cellular reduction assay in A549 cells; type: cell-based, human; details: time- and dose-dependence
Description: as §1, §2

[4] = test system: selenium-dependent reductases in cells; assay: Cellular reduction assay with selenium starvation or supplementation; type: cell-based
Description: as §1, §2

[5] = target: T1, human recombinant thioredoxin 1 (Trx1) (Homo sapiens, UniProt P10599); assay: Trx1 titration in Trx1/TrxR1 system, cell-free; type: biochemical; details: 10 μM probe
T1 sequence (P10599 2-105 limits assumed): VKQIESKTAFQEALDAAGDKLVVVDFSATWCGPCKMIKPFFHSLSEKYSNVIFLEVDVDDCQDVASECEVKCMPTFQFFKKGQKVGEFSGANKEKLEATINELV
Description: (§3) This cell-free assay (see FIG. 2) examined the processing of dichalcogenide-based fluorophore-releasing reduction-triggered probes that are compounds of the invention, by components of the cellular thioredoxin system.
(§4) Assay conditions and data representation: A black 96-well plate with black bottom was charged with solutions of probes (P1, P2, P3, P6, P7) to reach final reaction conditions: 100 μL of aq. TE buffer (pH 7.4), 10 μM probe concentration, 1 vol % DMSO, and 20 nM of human recombinant thioredoxin reductase 1 (TrxR1; in FIG. 1a), or 20 nM of either TrxR1 or thioredoxin reductase Sec498Cys mutant (TrxR1 U498C or “mut”; in FIG. 1b), or the indicated probe-to-reductant concentration ratios of TrxR1 (in FIG. 1c) or human recombinant thioredoxin 1 (Trx1; in FIG. 1d); with the final step being the addition of NADPH (100 μM final). The reaction mixtures were incubated at 37° C. for 3 to 6 h as shown with timecourse measurements of fluorescence as for FIG. 1. Data representation as for FIG. 1.

[6] = Challenge with monothiol reductant GSH, cell-free fluorogenic cargo release; type: physicochemical; details: 10 μM probe; for sensitivity to GSH in GSH titration, signal F/F^TCEP: 3 h timepoint, GSH up to 10 mM; for cargo release when challenged with GSH / GSH system reductants: relevant cellular levels
From the text: (§5) This cell-free assay examined the stability of dichalcogenide-based reduction-triggered compounds of the invention when exposed to cellular monothiol reductant GSH, and its cellular partner reductants glutathione reductase (GR) and glutaredoxins (Grx1 and Grx2).
(§6) Assay Conditions: A black 96-well plate with black bottom was charged with solutions of fluorophore-releasing reduction-triggered probes that are compounds of the invention (P1, P2, P3, P6 and P7) or that are not compounds of the invention and reveal the performance of prior art systems (disulfide X26), reaching 100 μL final volume, 1% final DMSO, 10 μM probe, aq. TE buffer (pH 7.4), with the indicated concentrations of reductant (in FIG. 1a) or concentration ratios of reductant to probe (in FIG. 1b-d). TCEP (100 μM) was used as a quantitative reference reductant; and in the GR/GSH/Grx assays (FIG. 1c-d), GR was used at 20 nM, GSH at 100 μM, to maintain Grx in a reduced state suitable for challenging the probes without supplying a high concentration of either GSH or GR. Reaction mixtures were incubated at 37° C. for up to 6 h while measuring fluorescence intensity F over time, using a BMG Labtech FLUOstar Omega platereader (λexc=355 nm, λem=530 nm).
(§7) Data Representation: F^TCEP is the maximum possible fluorescence increase, corresponding to complete reduction-triggered cargo release by the TCEP incubation. F/F^TCEP thus gives the fluorescence intensity, as a fraction of the maximum possible fluorescence signal, at the indicated times.

[7] = target: T2, thioredoxin reductase Sec498Cys mutant (TrxR1 U498C) (Homo sapiens, UniProt Q16881); assay: Enzymatic activation assay with TrxR1 Sec498Cys mutant, cell-free; type: biochemical; details: 10 μM probe, 20 nM mutant, 100 μM NADPH
T2 sequence (Q16881 with tags, fused parts or gaps isoform Q16881-5): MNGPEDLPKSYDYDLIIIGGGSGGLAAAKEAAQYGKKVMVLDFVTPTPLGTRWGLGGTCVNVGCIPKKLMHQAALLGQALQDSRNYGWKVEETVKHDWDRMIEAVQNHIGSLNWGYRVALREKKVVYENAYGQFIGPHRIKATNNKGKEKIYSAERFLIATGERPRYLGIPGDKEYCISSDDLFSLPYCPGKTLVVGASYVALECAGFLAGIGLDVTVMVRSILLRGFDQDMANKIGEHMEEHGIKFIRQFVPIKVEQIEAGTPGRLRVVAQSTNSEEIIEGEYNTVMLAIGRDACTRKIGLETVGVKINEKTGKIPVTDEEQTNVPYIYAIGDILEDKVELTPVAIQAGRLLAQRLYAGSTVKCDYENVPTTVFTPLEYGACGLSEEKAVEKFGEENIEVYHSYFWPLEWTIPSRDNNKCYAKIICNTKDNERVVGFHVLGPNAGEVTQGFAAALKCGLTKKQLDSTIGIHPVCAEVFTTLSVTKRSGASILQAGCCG
Description: as §3, §4

TrxR = target: T3, TrxR (Homo sapiens, UniProt Q16881); assay: Cellular reduction assay in HeLa cells with chemical TrxR inhibition (TRi compounds); type: cell-based
T3 construct: P6 is processed by native (selenium-incorporating) TrxR1 in cells; endogenous in cells; host or cells: HeLa
T3 sequence (Q16881 1-499 isoform Q16881-5): T2 sequence (Q16881 with tags, fused parts or gaps isoform Q16881-5) with C498U
Description: as §1, §2

TrxR1 = target: T4, TrxR1 (Mus musculus, UniProt Q9JMH6); assay: Cellular reduction assay in MEF cells with TrxR1 knockout; type: cell-based; details: MEF wildtype vs TrxR1 knockout
T4 construct: P6 is processed by native (selenium-incorporating) TrxR1 in cells; endogenous in cells; host or cells: MEF wildtype and MEF with TrxR1 knockout
T4 sequence (Q9JMH6 1-499 isoform Q9JMH6-2): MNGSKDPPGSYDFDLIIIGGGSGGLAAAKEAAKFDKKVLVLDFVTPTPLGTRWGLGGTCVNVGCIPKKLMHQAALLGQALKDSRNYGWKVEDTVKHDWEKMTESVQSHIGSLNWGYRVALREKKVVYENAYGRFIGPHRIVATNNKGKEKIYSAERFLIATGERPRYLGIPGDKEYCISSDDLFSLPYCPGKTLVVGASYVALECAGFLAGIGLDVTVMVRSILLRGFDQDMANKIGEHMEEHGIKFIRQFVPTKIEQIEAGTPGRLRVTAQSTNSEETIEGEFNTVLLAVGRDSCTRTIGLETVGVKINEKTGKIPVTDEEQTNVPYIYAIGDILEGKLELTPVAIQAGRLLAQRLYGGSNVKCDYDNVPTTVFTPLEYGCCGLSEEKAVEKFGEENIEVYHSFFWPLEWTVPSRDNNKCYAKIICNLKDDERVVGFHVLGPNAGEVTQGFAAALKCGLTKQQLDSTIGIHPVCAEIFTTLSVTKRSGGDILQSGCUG
Description: as §1, §2

[8] = target: T5, human recombinant thioredoxin reductase 1 (TrxR1) (Homo sapiens, UniProt Q16881); assay: Enzymatic activation assay with TrxR1, cell-free; type: biochemical; details: 10 μM probe; for cargo release on exposure to TrxR1 (timecourse): 20 nM TrxR1, 100 μM NADPH, 37 °C; for response in TrxR titration: TrxR down to 5 nM
T5 sequence (Q16881 1-499 isoform Q16881-5): T2 sequence (Q16881 with tags, fused parts or gaps isoform Q16881-5) with C498U
Description: as §3, §4

[9] = test system: glutaredoxins (Grx1 and Grx2) with GR and GSH; assay: Challenge with GR/GSH/Grx system reductants, cell-free; type: biochemical; details: 10 μM probe, GR 20 nM, GSH 100 μM, Grx1 or Grx2 up to physiological concentrations
From the text: as §5, §6, §7

HeLa cells = assay: In vitro cell viability assay (resazurin); type: cell-based, human; details: 48 h incubation, read-out: EC50 (antiproliferation / cell viability)
Description: Assay Conditions: HeLa cells were cultured under standard conditions (Gao, L. et al. Cell Chemical Biology 2021, 28, 1-14. https://doi.org/10.1016/j.chembiol.2020.11.007), left to adhere for 24 h, then compounds were added from DMSO stock solution and adjusted to 1% vol DMSO. Cells were further incubated for 48 h, then 0.20 volume equivalents of a solution of resazurin in PBS (0.15 mg/mL) were added and incubated for 3 hours, then fluorescence (ex 544 nm, em 590 nm) was detected on a fluorescence platereader. Cell viability (%) is calculated from the fluorescence values, relative to a control experiment with no compound added.

In the case of `COc1cccc2ccc3c(c12)Oc1cc(NC(=O)OCC[Se][Se]CCO)ccc1C31OC(=O)c2ccccc21` (centres unmarked) [E2], the “fluorescence signal with GSH” value [1] is given as “strong signal turn-on”.
In the case of `CN1CCN(C(=O)CCN(C(=O)Oc2ccc(Cl)cc2-c2nc3ccc(Cl)cc3c(=O)[nH]2)[C@H]2CCS[Se]C2)CC1` [P6], the “fluorescence signal generation F.I.(t) in HeLa cells” value [2] is reported as “strong time- and dose-dependent fluorescent signal increase; also recorded: generated strong fluorescent signal”, the “fluorescence signal generation in A549 cells” value [3] is reported as “time- and dose-dependent fluorescence increase; also recorded: dose- and time-dependently generated signal” and the “effect of selenium starvation/supplementation on cellular signal generation” value [4] is reported as “strongly suppressed by selenium starvation”. The “cargo release with increasing Trx1 at fixed TrxR1” value [5] was “identical release of cargo; also recorded: did not affect the outcomes”, the “sensitivity to GSH in GSH titration, signal F/F^TCEP” value [6] was “completely insensitive” and the “cargo release when challenged with GSH / GSH system reductants” value [6] was “totally resisted releasing cargo”. The “cargo release by TrxR1 U498C mutant” value [7] was “do not respond to the mutant; also recorded: did not cause cargo release”, the “effect of chemical TrxR inhibition on cellular signal” value (TrxR) was “suppresses P6 signal generation; also recorded: almost entirely suppressed” and the “effect of TrxR1 knockout on cellular signal” value (TrxR1) was “almost entirely suppressed by knockout”. For the same compound, the “cargo release on exposure to TrxR1 (timecourse)” value [8] was “release their cargo rapidly; also recorded: release cargo very rapidly”, the “response in TrxR titration” value [8] was “excellently responsive; also recorded: sensitively” and the “triggering by GR/GSH/Grx systems” value [9] was “resist triggering”.
For `CN1CCN(C(=O)CCN(C(=O)Oc2ccc(Cl)cc2-c2nc3ccc(Cl)cc3c(=O)[nH]2)[C@H]2CC[Se]SC2)CC1` [P7], the “fluorescence signal generation F.I.(t) in HeLa cells” value [2] was “strong time- and dose-dependent fluorescent signal increase; also recorded: generated strong fluorescent signal”, the “cargo release with increasing Trx1 at fixed TrxR1” value [5] was “identical release of cargo; also recorded: did not affect the outcomes” and the “sensitivity to GSH in GSH titration, signal F/F^TCEP” value [6] was “very low sensitivity”. The “cargo release when challenged with GSH / GSH system reductants” value [6] was “high resistance to GSH challenge”, the “cargo release by TrxR1 U498C mutant” value [7] was “do not respond to the mutant; also recorded: did not cause cargo release” and the “cargo release on exposure to TrxR1 (timecourse)” value [8] was “release their cargo rapidly; also recorded: release cargo very rapidly”. The “response in TrxR titration” value [8] was “excellently responsive; also recorded: sensitively” and the “triggering by GR/GSH/Grx systems” value [9] was “resist triggering; also recorded: total resistance to Grx challenge”.
With `CN(C(=O)Oc1cc2c(c3ccccc13)[C@H](CCl)CN2C(=O)c1cc2cc(OCCCN3CCC3)ccc2[nH]1)[C@H]1CCS[Se]C1` [P8] the EC50 (HeLa cells) was < 100 nM and the EC50 (HeLa cells; Homo sapiens, 48 h) was ~60 nM.
For `CNCCSSCCN(C)C(=O)Oc1ccc(Cl)cc1-c1nc2ccc(Cl)cc2c(=O)[nH]1` [X26, 4-chloro-2-(6-chloro-4-oxo-3,4-dihydroquinazolin-2-yl)phenyl methyl(2-((2-(methylamino)ethyl)disulfaneyl)ethyl)carbamate, reference compound], the “fluorescence signal generation F.I.(t) in HeLa cells” value [2] was “also generated signal”, the “effect of selenium starvation/supplementation on cellular signal generation” value [4] was “not sensitive to selenium supplementation” and the “response to GSH-triggered release of fluorescent cargo PQ-OH (timecourse)” value ([6]; subphysiological GSH 1 mM, TE buffer pH 7.4, 37 °C) was “rapidly and strongly affected; also recorded: rapid response”.

Reference: patent US20240156965A1, “DICHALCOGENIDE PRODRUGS” (Ludwig-Maximilians-Universitat Munchen, priority 2021, published 2024)
